Data: ChEMBL document CHEMBL2303647, “Data associated with the publication PLoS ONE, 8(3), e57888, (2013) PMID: 23505445. Compounds: GSK PKIS; Assays: NIH NCATS”

Key:
[1] = molecular target: T1, Coelenterazine h 2-monooxygenase (Renilla reniformis, UniProt P27652)
T1 sequence (P27652 whole entry): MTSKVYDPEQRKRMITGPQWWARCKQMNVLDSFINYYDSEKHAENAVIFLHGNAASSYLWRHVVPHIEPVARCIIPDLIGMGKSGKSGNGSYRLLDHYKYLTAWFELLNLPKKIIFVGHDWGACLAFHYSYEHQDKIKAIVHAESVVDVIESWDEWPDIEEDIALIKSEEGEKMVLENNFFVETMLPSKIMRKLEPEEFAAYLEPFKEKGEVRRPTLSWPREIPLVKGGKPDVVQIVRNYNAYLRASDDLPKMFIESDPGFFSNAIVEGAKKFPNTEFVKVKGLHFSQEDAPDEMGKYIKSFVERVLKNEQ
Description: GSK_PKIS: Inhibition of Sea Pansy Luciferase (Data from PubChem: AID 652015) [NIH NCATS]

[2] = molecular target: Luciferin 4-monooxygenase (Photinus pyralis, UniProt P08659)
Sequence of Luciferin 4-monooxygenase (P08659 whole entry): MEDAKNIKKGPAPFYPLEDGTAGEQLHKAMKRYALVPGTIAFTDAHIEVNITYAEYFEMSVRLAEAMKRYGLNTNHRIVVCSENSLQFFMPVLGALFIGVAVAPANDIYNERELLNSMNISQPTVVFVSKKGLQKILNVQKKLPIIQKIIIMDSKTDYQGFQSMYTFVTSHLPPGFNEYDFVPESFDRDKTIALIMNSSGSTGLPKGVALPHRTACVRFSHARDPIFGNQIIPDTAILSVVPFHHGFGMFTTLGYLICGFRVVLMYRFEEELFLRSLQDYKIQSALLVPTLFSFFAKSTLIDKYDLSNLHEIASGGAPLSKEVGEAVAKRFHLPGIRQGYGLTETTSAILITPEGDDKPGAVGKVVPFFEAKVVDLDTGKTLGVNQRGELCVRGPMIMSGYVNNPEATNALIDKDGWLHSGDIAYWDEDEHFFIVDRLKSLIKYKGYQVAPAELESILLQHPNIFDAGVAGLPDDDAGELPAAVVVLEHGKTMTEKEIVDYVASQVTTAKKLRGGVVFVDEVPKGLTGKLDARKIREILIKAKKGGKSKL
Description: GSK_PKIS: Inhibition of Firefly Luciferase (Data from PubChem: AID 652016) [NIH NCATS]

Compound	AC50 [1]	AC50 [2]	AC50 ([2]; read-out: AC50) [µM]	AC50 ([1]; read-out: AC50) [µM]
CCn1c(-c2nonc2N)nc2cnc(Oc3cccc(NC(=O)c4ccc(OCCN5CCOCC5)cc4)c3)cc21.Cl [GSK-269962B]	Phenotype: Inactive; Curve_Description: None	Phenotype: Inactive; Curve_Description: None		
O=C1Nc2ccccc2/C1=C/Nc1ccc(-n2cncn2)cc1 [GW301789X]	Phenotype: Inactive; Curve_Description: None		18.3	
CCc1nn2ncccc2c1-c1ccnc(NC2CC2)n1 [GW683768X]	Phenotype: Inactive; Curve_Description: None	Phenotype: Inactive; Curve_Description: None		
Nc1nonc1-c1nc2cnccc2n1C1CCCCC1	Phenotype: Inactive; Curve_Description: None	Phenotype: Inactive; Curve_Description: None		
CN1CCN(CCCNc2nc3ccc(Oc4ccc(NC(=O)Nc5cc(C(F)(F)F)ccc5F)cc4)cc3[nH]2)CC1.Cl [GW700494A]		Phenotype: Inactive; Curve_Description: None		23.1
COc1cc2ncn(-c3cc(OCc4ccccc4Cl)c(C(N)=O)s3)c2cc1OC [GW852849X]	Phenotype: Inactive; Curve_Description: None	Phenotype: Inactive; Curve_Description: None		
CCn1c(-c2nonc2N)nc2c(C#CC(C)(C)O)ncc(OCC3CCNCC3)c21.O=C(O)C(F)(F)F [GSK-554170A]	Phenotype: Inactive; Curve_Description: None	Phenotype: Inactive; Curve_Description: None		
Cc1ccc(NC(=O)c2ccnc(N3CCCC3)c2)cc1-c1ccc(C(=O)NCC2CC2)cc1 [GW769076X]		Phenotype: Inactive; Curve_Description: None		29.1
NS(=O)(=O)c1cccc(-c2ccc3c(NC(=O)C4CC4)n[nH]c3c2)c1			20.6	36.6
CCn1cc(-c2ccnc3[nH]ccc23)c(-c2cccc(NC(=O)Nc3ccc(OCc4ccccc4)cc3)c2)n1 [GSK-718429A]	Phenotype: Inactive; Curve_Description: None	Phenotype: Inactive; Curve_Description: None		
c1ccc(Nc2ncc(-c3ccccc3)o2)cc1 [GW549390X]	Phenotype: Inactive; Curve_Description: None		0.259	
C/C(Nc1ccc(S(N)(=O)=O)cc1)=C1/C(=O)Nc2ccccc21 [GW335962X]	Phenotype: Inactive; Curve_Description: None		3.66	
O=C(Nc1n[nH]c2cc(-c3ccc(F)cc3)ccc12)C1CC1	Phenotype: Inactive; Curve_Description: None		16.3	
Cc1ccc(C(=O)NC2CCC2)cc1-c1ccc(C(=O)NCC2CC2)cc1 [GW782912X]	Phenotype: Inactive; Curve_Description: None		29.1	
CN1CCC(n2cnc(-c3ccc(F)cc3)c2-c2ccnc(NCCO)n2)CC1	Phenotype: Inactive; Curve_Description: None		36.6	
COc1cc2ncn(-c3cc(OCc4ccccc4S(C)(=O)=O)c(C#N)s3)c2cc1OC [GSK-319347A]	Phenotype: Inactive; Curve_Description: None	Phenotype: Inactive; Curve_Description: None		
NS(=O)(=O)c1cccc(-c2cc3ccncc3cc2OCc2ccccc2)c1 [GSK-980961A]		Phenotype: Inactive; Curve_Description: None		25.9
COc1cc2ncn(-c3cc(OCc4ccccc4C(F)(F)F)c(C(=O)N(C)C)s3)c2cc1OC [GSK-1030062A]		Phenotype: Inactive; Curve_Description: None		23.1
CN1CCC(n2cnc(-c3ccc(F)cc3)c2-c2ccnc(N)n2)CC1	Phenotype: Inactive; Curve_Description: None	Phenotype: Inactive; Curve_Description: None		
COc1cc2ncn(-c3cc(OCc4ccccc4C(F)(F)F)c(C(C)=O)s3)c2cc1OC [GSK-1030059A]	Phenotype: Inactive; Curve_Description: None	Phenotype: Inactive; Curve_Description: None		
CS(=O)(=O)CCNCc1ccoc1-c1ccc2ncnc(Nc3ccc(OCc4ccccc4)cc3)c2c1.Cl [GW568377A]	Phenotype: Inactive; Curve_Description: None		20.6	
Cl.O=S(=O)(CCNCc1ccc(-c2ccc3ncnc(Nc4ccc(OCc5cccc(F)c5)c(Cl)c4)c3c2)o1)c1ccccc1 [GW633459A]	Phenotype: Inactive; Curve_Description: None		29.1	
Cl.NC(=O)c1ccc(-c2nc(-c3ccccn3)c(-c3ccc4c(c3)OCO4)[nH]2)cc1	Phenotype: Inactive; Curve_Description: None	Phenotype: Inactive; Curve_Description: None		
CCn1c(-c2nonc2N)nc2c(C#CC(C)(C)O)ncc(OC3CCNCC3)c21.O=C(O)C(F)(F)F [GSK-619487A]	Phenotype: Inactive; Curve_Description: None	Phenotype: Inactive; Curve_Description: None		

Compound	AC50 [1]	AC50 [2]	AC50 ([2]; read-out: AC50) [µM]	AC50 ([1]; read-out: AC50) [µM]
CCn1c(-c2nonc2N)nc2c(C#CC(C)(C)O)nc(O[C@@H](CN)c3ccccc3)cc21.O=C(O)C(F)(F)F [GSK-1007102B]		Phenotype: Inactive; Curve_Description: None		29.1
COc1cccc(COc2cc(-n3cnc4ccccc43)sc2C(N)=O)c1 [GW804482X]		Phenotype: Inactive; Curve_Description: None		20.6
CCCN1CCC(Oc2cc(Nc3nc(Nc4cccc(F)c4C(N)=O)c4cc[nH]c4n3)c(OC)cc2Cl)CC1 [GSK-1713088A]	Phenotype: Activator; Curve_Description: None		0.291	
NS(=O)(=O)c1ccc(N/C=C2\C(=O)Nc3ccc4ncsc4c32)cc1 [GW297361X]		Phenotype: Inactive; Curve_Description: None		32.6
CCCN1CCCC(c2ccc(Nc3nc(Nc4cc(F)ccc4C(N)=O)c4cc[nH]c4n3)c(OC)c2)C1 (stereo unspecified) [GSK-1173862A]		Phenotype: Inactive; Curve_Description: None		32.6
COc1cc(N2CCN(C(C)C)CC2)ccc1Nc1nc(Nc2cccc(F)c2C(=O)O)c2cc[nH]c2n1 [GSK-1819799A]	Phenotype: Inactive; Curve_Description: None	Phenotype: Inactive; Curve_Description: None		
CC1=C(C(=O)Nc2cc(Cl)c3[nH]ncc3c2)C(c2ccc(C(F)(F)F)cc2)CC(=O)N1 (stereo unspecified) [GSK-466317A]	Phenotype: Inactive; Curve_Description: None	Phenotype: Inactive; Curve_Description: None		
COc1ccc(-c2oc3ncnc(N)c3c2-c2ccc(NC(=O)Nc3cc(C(F)(F)F)ccc3F)cc2)cc1.Cl [GW768505A]	Phenotype: Inactive; Curve_Description: None	Phenotype: Inactive; Curve_Description: None		
COc1cc(N2CCN(C(C)C)CC2)ccc1Nc1nc(Nc2ccc(F)cc2C(=O)NC[C@@H](O)CO)c2cc[nH]c2n1 [GSK-1392956A]	Phenotype: Inactive; Curve_Description: None	Phenotype: Inactive; Curve_Description: None		
OCc1ccc(-c2nc(-c3ccccn3)c(-c3ccc4c(c3)OCO4)[nH]2)cc1			18.3	41.1
Cc1cc(O)cc(C)c1/C=C/c1cncc(C(=O)N(C)C)c1 [GW427984X]	Phenotype: Inactive; Curve_Description: None	Phenotype: Inactive; Curve_Description: None		
Cc1cc(-c2ccco2)cc(C)c1/C=C/c1cncc(-c2nn[nH]n2)c1.Cl [GW458344A]	Phenotype: Inactive; Curve_Description: None		20.6	
Cl.Oc1cccc(-c2nc(-c3ccccc3)[nH]c2-c2ccncc2)c1		Phenotype: Inactive; Curve_Description: None		23.1
Fc1cccc(COc2ccc(Nc3ncnc4sc(-c5ccco5)cc34)cc2Cl)c1 [GSK-969786A]	Phenotype: Inactive; Curve_Description: None	Phenotype: Inactive; Curve_Description: None		
NS(=O)(=O)c1ccc(N/N=C2\C(=O)Nc3ccc(C(=O)NCc4ccncc4)cc32)cc1 [GW300657X]	Phenotype: Inactive; Curve_Description: None	Phenotype: Inactive; Curve_Description: None		
CN(c1ccc(NC(=O)NCCN2CCOCC2)cc1)c1ccnc(Nc2ccc(CS(C)(=O)=O)cc2)n1.Cl [GW830365A]	Phenotype: Inactive; Curve_Description: None		20.6	
Nc1nc(-c2ccc(F)cc2)c(-c2ccc3ncccc3n2)s1 [GW785804X]	Phenotype: Inactive; Curve_Description: None	Phenotype: Inactive; Curve_Description: None		
CC1=C(C(=O)Nc2ccc3[nH]ncc3c2)C(c2ccc(F)cc2)N=C(c2ccc(C(F)(F)F)nc2)N1 (stereo unspecified) [GSK-317354A]	Phenotype: Activator; Curve_Description: None		41.1	
COc1ccc2ncn(-c3cc(O[C@H](C)c4ccccc4C(F)(F)F)c(C(N)=O)s3)c2c1 [GSK-317315A]		Phenotype: Inactive; Curve_Description: None		20.6
COc1cccc(/C=N/Nc2ncnc3c2cnn3-c2cccc(OC)c2)c1 [GW829874X]	Phenotype: Inactive; Curve_Description: None	Phenotype: Inactive; Curve_Description: None		
COc1cc(C=NNc2ncnc3c2cnn3-c2ccccc2)ccc1O [GW513184X]	Phenotype: Inactive; Curve_Description: None	Phenotype: Inactive; Curve_Description: None		
CS(=O)(=O)CCN(CC#N)Cc1ccc(-c2ccc3ncnc(Nc4ccc(OCc5cccc(F)c5)c(Cl)c4)c3c2)o1 [GW616030X]	Phenotype: Inactive; Curve_Description: None	Phenotype: Inactive; Curve_Description: None		
NC(=O)c1ccc2c(-c3ccnc(NCCCO)n3)c(-c3ccc(F)cc3)nn2c1 [GW581744X]	Phenotype: Inactive; Curve_Description: None	Phenotype: Inactive; Curve_Description: None		
Fc1ccc(-c2ncn(CCCN3CCOCC3)c2-c2ccncc2)cc1 [SB-210313]	Phenotype: Activator; Curve_Description: None	Phenotype: Inactive; Curve_Description: None		
